The molecules below were run on mPTP-active Daoy cell (assay: Inhibitory effect (IC50) on mPTP-active Daoy cell, Promega CellTiter-Glo kit). Settings: Homo sapiens, Daoy cell transfected with empty virus vector without PPIF shRNA.
Assay type: cell-based

Point of comparison: `COc1ccc2c(c1OC)C(C1CCCCC1)N1CCc3cc4c(cc3C1=C2)OCO4` (stereo not shown) [compound AB31893], IC50 5.14 µM. Against it:
- COc1ccc2c(c1OC)CN1CCc3cc4c(cc3C1=C2)OCO4 [compound AB31713] — 4.9-fold higher, 25 µM
- COc1ccc2c(c1OC)C(C(Cl)(Cl)Cl)N1CCc3cc4c(cc3C1=C2)OCO4 (stereo not shown) [compound AB31714] — 5.2-fold higher, 26.7 µM
- CCCCC1c2c(ccc(OC)c2OC)C=C2c3cc4c(cc3CCN21)OCO4 (stereo not shown) [compound AB31875] — 2.8-fold higher, 14.6 µM
- C=CCCC1c2c(ccc(OC)c2OC)C=C2c3cc4c(cc3CCN21)OCO4 (stereo not shown) [compound AB31882] — 3.8-fold higher, 19.3 µM
- CCC1c2c(ccc(OC)c2OC)C=C2c3cc4c(cc3CCN21)OCO4 (stereo not shown) [compound AB31883] — within 1.5-fold, 5.64 µM
- CCCC1c2c(ccc(OC)c2OC)C=C2c3cc4c(cc3CCN21)OCO4 (stereo not shown) [compound AB31884] — within 1.5-fold, 5.76 µM
- COc1ccc2c(c1OC)C(C(C)C)N1CCc3cc4c(cc3C1=C2)OCO4 (stereo not shown) [compound AB31885] — within 1.5-fold, 6.43 µM
- COc1ccc2c(c1OC)C(C)N1CCc3cc4c(cc3C1=C2)OCO4 (stereo not shown) [compound AB31886] — 2.8-fold higher, 14.3 µM
- C=CCC1c2c(ccc(OC)c2OC)C=C2c3cc4c(cc3CCN21)OCO4 (stereo not shown) [compound AB31891] — within 1.5-fold, 6.22 µM
- COc1ccc2c(c1OC)C(C1CCCC1)N1CCc3cc4c(cc3C1=C2)OCO4 (stereo not shown) [compound AB31900] — within 1.5-fold, 5.37 µM
- COc1ccc2c(c1OC)C(C(F)(F)F)N1CCc3cc4c(cc3C1=C2)OCO4 (stereo not shown) [compound AB35403] — 12-fold higher, 60.1 µM
- CCCCCCC1c2c(ccc(OC)c2OC)C=C2c3cc4c(cc3CCN21)OCO4 (stereo not shown) [compound AB35435] — 3.9-fold lower, 1.32 µM

Each molecule was assayed on mPTP-inactive Daoy cell (assay: Inhibitory effect (IC50) on mPTP-inactive Daoy cell (PPIF shRNA), Promega CellTiter-Glo kit). Settings: Homo sapiens, Daoy cell transfected with virus vector carrying PPIF shRNA.
Assay type: cell-based

Point of comparison: `COc1ccc2c(c1OC)C(C(Cl)(Cl)Cl)N1CCc3cc4c(cc3C1=C2)OCO4` (stereo not shown) [compound AB31714], IC50 12.5 µM. Against it:
- COc1ccc2c(c1OC)CN1CCc3cc4c(cc3C1=C2)OCO4 [compound AB31713] — the same, 12.5 µM
- CCCCC1c2c(ccc(OC)c2OC)C=C2c3cc4c(cc3CCN21)OCO4 (stereo not shown) [compound AB31875] — 2-fold lower, 6.25 µM
- C=CCCC1c2c(ccc(OC)c2OC)C=C2c3cc4c(cc3CCN21)OCO4 (stereo not shown) [compound AB31882] — within 1.5-fold, 9.22 µM
- CCC1c2c(ccc(OC)c2OC)C=C2c3cc4c(cc3CCN21)OCO4 (stereo not shown) [compound AB31883] — 5.1-fold lower, 2.45 µM
- CCCC1c2c(ccc(OC)c2OC)C=C2c3cc4c(cc3CCN21)OCO4 (stereo not shown) [compound AB31884] — 4.6-fold lower, 2.71 µM
- COc1ccc2c(c1OC)C(C(C)C)N1CCc3cc4c(cc3C1=C2)OCO4 (stereo not shown) [compound AB31885] — 3.9-fold lower, 3.17 µM
- COc1ccc2c(c1OC)C(C)N1CCc3cc4c(cc3C1=C2)OCO4 (stereo not shown) [compound AB31886] — 2.2-fold lower, 5.74 µM
- C=CCC1c2c(ccc(OC)c2OC)C=C2c3cc4c(cc3CCN21)OCO4 (stereo not shown) [compound AB31891] — 4-fold lower, 3.12 µM
- COc1ccc2c(c1OC)C(C1CCCCC1)N1CCc3cc4c(cc3C1=C2)OCO4 (stereo not shown) [compound AB31893] — 5-fold lower, 2.5 µM
- COc1ccc2c(c1OC)C(C1CCCC1)N1CCc3cc4c(cc3C1=C2)OCO4 (stereo not shown) [compound AB31900] — 4.9-fold lower, 2.56 µM
- COc1ccc2c(c1OC)C(C(F)(F)F)N1CCc3cc4c(cc3C1=C2)OCO4 (stereo not shown) [compound AB35403] — 2.3-fold higher, 28.6 µM
- CCCCCCC1c2c(ccc(OC)c2OC)C=C2c3cc4c(cc3CCN21)OCO4 (stereo not shown) [compound AB35435] — 18-fold lower, 0.69 µM

What follows are molecules tested on Con-NCI-H82 cell (assay: Inhibitory effect (IC50) on Con-NCI-H82 cell, Promega CellTiter-Glo kit). Settings: Homo sapiens, NCI-H82 cell transfected with empty virus vector.
Assay type: cell-based

Point of comparison: `CCCC1c2c(ccc(OC)c2OC)C=C2c3cc4c(cc3CCN21)OCO4` (stereo not shown) [compound AB31884], IC50 2.31 µM. Against it:
- COc1ccc2c(c1OC)C(C(Cl)(Cl)Cl)N1CCc3cc4c(cc3C1=C2)OCO4 (stereo not shown) [compound AB31714] — within 1.5-fold, 2.33 µM
- CCCCC1c2c(ccc(OC)c2OC)C=C2c3cc4c(cc3CCN21)OCO4 (stereo not shown) [compound AB31875] — within 1.5-fold, 3.27 µM
- C=CCCC1c2c(ccc(OC)c2OC)C=C2c3cc4c(cc3CCN21)OCO4 (stereo not shown) [compound AB31882] — 2.2-fold higher, 5.16 µM
- CCC1c2c(ccc(OC)c2OC)C=C2c3cc4c(cc3CCN21)OCO4 (stereo not shown) [compound AB31883] — within 1.5-fold, 2.18 µM
- COc1ccc2c(c1OC)C(C(C)C)N1CCc3cc4c(cc3C1=C2)OCO4 (stereo not shown) [compound AB31885] — 2.1-fold lower, 1.12 µM
- COc1ccc2c(c1OC)C(C)N1CCc3cc4c(cc3C1=C2)OCO4 (stereo not shown) [compound AB31886] — within 1.5-fold, 3.22 µM
- C=CCC1c2c(ccc(OC)c2OC)C=C2c3cc4c(cc3CCN21)OCO4 (stereo not shown) [compound AB31891] — within 1.5-fold, 2.06 µM
- COc1ccc2c(c1OC)C(C(F)(F)F)N1CCc3cc4c(cc3C1=C2)OCO4 (stereo not shown) [compound AB35403] — 3-fold higher, 6.91 µM
- CCCCCCC1c2c(ccc(OC)c2OC)C=C2c3cc4c(cc3CCN21)OCO4 (stereo not shown) [compound AB35435] — 3.2-fold lower, 0.72 µM

These molecules were tested on ov-NNMT NCI-H82 cell (assay: Inhibitory effect (IC50) on ov-NNMT NCI-H82 cell, Promega CellTiter-Glo kit). Settings: Homo sapiens, NNMT protein overexpressed NCI-H82 cell.
Assay type: cell-based

Point of comparison: `COc1ccc2c(c1OC)C(C(C)C)N1CCc3cc4c(cc3C1=C2)OCO4` (stereo not shown) [compound AB31885], IC50 4.13 µM. Against it:
- COc1ccc2c(c1OC)C(C(Cl)(Cl)Cl)N1CCc3cc4c(cc3C1=C2)OCO4 (stereo not shown) [compound AB31714] — 1.7-fold higher, 7.04 µM
- CCCCC1c2c(ccc(OC)c2OC)C=C2c3cc4c(cc3CCN21)OCO4 (stereo not shown) [compound AB31875] — 2.4-fold higher, 10.1 µM
- C=CCCC1c2c(ccc(OC)c2OC)C=C2c3cc4c(cc3CCN21)OCO4 (stereo not shown) [compound AB31882] — 2.8-fold higher, 11.6 µM
- CCC1c2c(ccc(OC)c2OC)C=C2c3cc4c(cc3CCN21)OCO4 (stereo not shown) [compound AB31883] — within 1.5-fold, 5.56 µM
- CCCC1c2c(ccc(OC)c2OC)C=C2c3cc4c(cc3CCN21)OCO4 (stereo not shown) [compound AB31884] — 1.5-fold higher, 6.32 µM
- COc1ccc2c(c1OC)C(C)N1CCc3cc4c(cc3C1=C2)OCO4 (stereo not shown) [compound AB31886] — 2.1-fold higher, 8.48 µM
- C=CCC1c2c(ccc(OC)c2OC)C=C2c3cc4c(cc3CCN21)OCO4 (stereo not shown) [compound AB31891] — 1.6-fold higher, 6.55 µM
- COc1ccc2c(c1OC)C(C(F)(F)F)N1CCc3cc4c(cc3C1=C2)OCO4 (stereo not shown) [compound AB35403] — 4.1-fold higher, 16.8 µM
- CCCCCCC1c2c(ccc(OC)c2OC)C=C2c3cc4c(cc3CCN21)OCO4 (stereo not shown) [compound AB35435] — 1.6-fold lower, 2.66 µM

These molecules were tested on sh-DNMT1 NCI-H82 cell (assay: Inhibitory effect (IC50) on sh-DNMT1 NCI-H82 cell, Promega CellTiter-Glo kit). Settings: Homo sapiens, DNMT1 knocked down NCI-H82 cell.
Assay type: cell-based

Point of comparison: `COc1ccc2c(c1OC)C(C)N1CCc3cc4c(cc3C1=C2)OCO4` (stereo not shown) [compound AB31886], IC50 9.66 µM. Against it:
- COc1ccc2c(c1OC)CN1CCc3cc4c(cc3C1=C2)OCO4 [compound AB31713] — 1.5-fold higher, 14.6 µM
- COc1ccc2c(c1OC)C(C(Cl)(Cl)Cl)N1CCc3cc4c(cc3C1=C2)OCO4 (stereo not shown) [compound AB31714] — within 1.5-fold, 14.3 µM
- CCCCC1c2c(ccc(OC)c2OC)C=C2c3cc4c(cc3CCN21)OCO4 (stereo not shown) [compound AB31875] — within 1.5-fold, 12.3 µM
- C=CCCC1c2c(ccc(OC)c2OC)C=C2c3cc4c(cc3CCN21)OCO4 (stereo not shown) [compound AB31882] — 1.9-fold higher, 18.8 µM
- CCC1c2c(ccc(OC)c2OC)C=C2c3cc4c(cc3CCN21)OCO4 (stereo not shown) [compound AB31883] — 1.6-fold lower, 5.98 µM
- CCCC1c2c(ccc(OC)c2OC)C=C2c3cc4c(cc3CCN21)OCO4 (stereo not shown) [compound AB31884] — within 1.5-fold, 8.64 µM
- COc1ccc2c(c1OC)C(C(C)C)N1CCc3cc4c(cc3C1=C2)OCO4 (stereo not shown) [compound AB31885] — 1.6-fold lower, 5.99 µM
- C=CCC1c2c(ccc(OC)c2OC)C=C2c3cc4c(cc3CCN21)OCO4 (stereo not shown) [compound AB31891] — 1.7-fold lower, 5.73 µM
- COc1ccc2c(c1OC)C(C1CCCC1)N1CCc3cc4c(cc3C1=C2)OCO4 (stereo not shown) [compound AB31900] — within 1.5-fold, 6.58 µM
- COc1ccc2c(c1OC)C(C(F)(F)F)N1CCc3cc4c(cc3C1=C2)OCO4 (stereo not shown) [compound AB35403] — 2.5-fold higher, 24.2 µM
- CCCCCCC1c2c(ccc(OC)c2OC)C=C2c3cc4c(cc3CCN21)OCO4 (stereo not shown) [compound AB35435] — 2.6-fold lower, 3.65 µM

The molecules below were run on Daoy cell (assay: Mitochondria membrane potential difference by TMRM in Daoy cell). Settings: CsA −, H2O2 +.
Assay type: cell-based, human
Description: The mitochondria permeability transition pore (mPTP) was a non-specific channel on the inner membrane of mitochondria, which could allow small molecules with molecular less than 1.5KD to pass freely, and its activity was affected by peroxides (such as H2O2), pH and calcium ions in mitochondria. […] For cells with active mitochondria permeability transition pore, adding peroxide (such as H2O2) could increase the activity of mitochondria permeability transition pore, resulting in a decrease in mitochondria membrane potential.

`OO` [H2O2] was tested, and the “Relative TMRM signal intensity (%), mean value” was 82%.

What follows are molecules tested on Daoy cell transfected with empty virus vector without carrying shRNA (assay: Mitochondria membrane potential difference by TMRM in Daoy cell transfected with empty virus vector). Settings: CsA −, H2O2 +.
Assay type: cell-based, human

`OO` [H2O2] was tested, and the “Relative TMRM signal intensity (%), mean value” was 79%.

What follows are molecules tested on Daoy cell transfected with virus vector carrying shRNA that could specificly induce the degradation of PPIF mRNA (assay: Mitochondria membrane potential difference by TMRM in Daoy cell transfected with virus vector carrying PPIF shRNA). Settings: CsA −, H2O2 +.
Assay type: cell-based, human

For `OO` [H2O2], the “Relative TMRM signal intensity (%), mean value” was 95%.
